Reference: paper PMC4925669, “Phytochemicals Mediate the Expression and Activity of OCTN2 as Activators of the PPARγ/RXRα Pathway” (Frontiers in Pharmacology, 2016)

Molecular target: T1, PPARγ (Homo sapiens, UniProt P37231)
T1 construct: gene PPARG; pcDNA3.1-PPARγ; with RXRα
T1 sequence (P37231 1-505): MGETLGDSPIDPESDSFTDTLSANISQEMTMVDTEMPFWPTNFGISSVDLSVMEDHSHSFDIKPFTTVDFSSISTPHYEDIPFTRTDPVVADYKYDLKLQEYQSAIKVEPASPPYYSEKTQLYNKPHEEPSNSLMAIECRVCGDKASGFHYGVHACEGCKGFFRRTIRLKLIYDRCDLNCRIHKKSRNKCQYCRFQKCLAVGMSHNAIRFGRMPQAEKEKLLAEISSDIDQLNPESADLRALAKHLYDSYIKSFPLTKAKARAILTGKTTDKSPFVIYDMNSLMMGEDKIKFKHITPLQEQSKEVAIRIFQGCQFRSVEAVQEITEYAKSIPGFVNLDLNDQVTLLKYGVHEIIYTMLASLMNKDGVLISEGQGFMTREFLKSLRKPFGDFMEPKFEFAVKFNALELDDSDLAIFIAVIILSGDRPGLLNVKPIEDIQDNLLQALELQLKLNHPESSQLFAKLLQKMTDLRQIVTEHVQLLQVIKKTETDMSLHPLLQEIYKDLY
T1 sequence (P19793 1-462 partner): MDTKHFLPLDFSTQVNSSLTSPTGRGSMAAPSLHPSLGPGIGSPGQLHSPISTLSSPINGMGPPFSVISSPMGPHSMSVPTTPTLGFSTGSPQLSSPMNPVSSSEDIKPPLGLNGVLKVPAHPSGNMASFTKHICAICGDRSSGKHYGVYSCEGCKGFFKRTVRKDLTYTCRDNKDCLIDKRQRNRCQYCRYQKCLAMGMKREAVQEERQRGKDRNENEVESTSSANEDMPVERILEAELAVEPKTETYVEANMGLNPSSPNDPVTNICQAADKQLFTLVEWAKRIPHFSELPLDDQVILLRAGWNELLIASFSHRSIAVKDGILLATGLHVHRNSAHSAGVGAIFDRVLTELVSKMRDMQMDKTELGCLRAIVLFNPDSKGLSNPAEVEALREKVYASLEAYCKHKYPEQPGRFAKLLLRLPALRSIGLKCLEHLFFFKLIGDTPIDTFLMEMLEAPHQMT
Experiment: PPRE/OCTN2 dual-luciferase transactivation assay in COS-7 cells transfected with PPARγ/RXRα, blocked by GW9662
Type: cell-based

## O=c1c(O)c(-c2ccc(O)cc2)oc2cc(O)cc(O)c12 [Kaempferol]
  Relative RFU fold change (% of blank): 189.89 ± 5.98 % of blank
